# Biological target: T1, human calcium-sensing receptor (CaSR) (Homo sapiens, UniProt P41180)
# T1 construct: expressed in transfected cells
# T1 sequence (P41180 20-1078): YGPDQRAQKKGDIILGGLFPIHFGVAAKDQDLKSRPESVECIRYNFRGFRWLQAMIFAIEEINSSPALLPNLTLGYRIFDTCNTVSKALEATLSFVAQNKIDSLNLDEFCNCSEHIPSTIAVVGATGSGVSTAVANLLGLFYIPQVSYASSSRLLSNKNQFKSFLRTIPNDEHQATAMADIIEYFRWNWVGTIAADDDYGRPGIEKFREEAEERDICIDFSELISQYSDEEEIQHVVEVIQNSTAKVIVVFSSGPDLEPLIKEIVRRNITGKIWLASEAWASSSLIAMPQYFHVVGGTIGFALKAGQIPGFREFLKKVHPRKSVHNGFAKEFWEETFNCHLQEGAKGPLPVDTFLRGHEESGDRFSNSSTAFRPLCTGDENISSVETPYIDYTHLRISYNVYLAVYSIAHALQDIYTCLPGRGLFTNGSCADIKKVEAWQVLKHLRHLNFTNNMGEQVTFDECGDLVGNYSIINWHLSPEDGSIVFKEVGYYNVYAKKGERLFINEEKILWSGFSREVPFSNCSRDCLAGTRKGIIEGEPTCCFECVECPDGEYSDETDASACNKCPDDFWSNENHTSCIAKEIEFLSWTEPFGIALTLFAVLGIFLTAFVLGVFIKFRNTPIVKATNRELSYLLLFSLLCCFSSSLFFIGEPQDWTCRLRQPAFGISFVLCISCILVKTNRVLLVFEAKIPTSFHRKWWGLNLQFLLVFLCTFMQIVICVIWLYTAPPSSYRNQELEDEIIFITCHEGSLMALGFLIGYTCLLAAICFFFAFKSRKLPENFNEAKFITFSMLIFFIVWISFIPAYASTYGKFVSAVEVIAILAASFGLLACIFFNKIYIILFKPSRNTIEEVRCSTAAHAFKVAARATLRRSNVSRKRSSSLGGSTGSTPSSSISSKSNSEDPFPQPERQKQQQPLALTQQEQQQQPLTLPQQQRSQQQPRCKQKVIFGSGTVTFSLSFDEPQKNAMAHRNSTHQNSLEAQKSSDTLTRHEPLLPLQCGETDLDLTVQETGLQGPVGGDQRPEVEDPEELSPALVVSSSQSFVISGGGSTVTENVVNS
# Experiment: intracellular Ca assay, CaSR antagonist activity in HEK293/hCaSR cells
# Assay type: cell-based
# Details: Fura2-AM, inhibition of response to calcium chloride ligand solution, read-out: IC50 values according to the intracellular Ca assay (CaSR antagonist activity)
# Description: HEK293 cells stably expressing human calcium-sensing receptor (CaSR) (termed HEK293/hCaSR cells) were used. HEK293/hCaSR cells were cultured in a culture medium [DMEM medium containing 0.5 mg/mL Geneticin, 50 Unit/mL penicillin, 50 μg/mL streptomycin and 10% fetal bovine serum (FBS), all manufactured by Invitrogen] to semiconfluent in an incubator at 37° C. under 5% carbon dioxide atmosphere.
# Cultured cells were washed with phosphate buffered saline (PBS(−), manufactured by Dainippon Sumitomo Pharmaceutical Company) which had been prewarmed to 37° C., added with PBS(−) containing 10 mM ethylenediamine tetraacetic acid (EDTA), and then incubated in an incubator at 37° C. for 10 minutes. After adding the culture medium to separate the cells, cell suspension was transferred to a centrifuge tube. Cells were collected by centrifuge at 1,500 rpm for 3 minutes, and resuspended in Ca assay buffer [20 mM HEPES buffer (pH 7.4), 115 mM sodium chloride, 5.4 mM potassium chloride, 0.8 mM magnesium chloride, 0.8 mM calcium chloride, 13.8 mM D(+)-glucose (all manufactured by Wako Pure Chemicals) and 0.1% bovine serum albumin (manufactured by SIGMA)] containing 0.2% Pluronic F-127 (manufactured by Molecular Probes) and […] Fura2-AM (manufactured by DOJINDO LABORATORIES) to obtain a cell suspension of 5×10^6 cells/mL. After incubating at 37° C. for 30 minutes, the cells were washed twice with the Ca assay buffer and suspended in the same buffer to obtain a cell suspension of 1×10^6 cells/60 μL. 60 μL of the cell suspension was aliquoted to each well of a 96 well UV microplate (manufactured by Corning Co.) to give a cell plate.
# The test compound was diluted with the Ca assay buffer to five times the final concentration and then 80 μL of the diluted compound was applied to each well of a 96 well round bottomed microplate (manufactured by Corning Co.) to give a sample plate. 80 μL of the Ca assay buffer containing 7.5 mM calcium chloride (i.e., ligand solution) was applied to each well of a 96 well round bottomed microplate to give a ligand plate. Then, thus prepared sample plate, ligand plate, and the cell plate were placed in Functional Drug Screening System (FDSS) 4000 (manufactured by Hamamatsu Photonics K.K.) which had been preswitched on and prewarmed to 37° C. Measurements were then carried out as follows. After incubating the cell plate for 180 seconds, fluorescence intensity was measured every two seconds (excitation wavelength; 340 nm and 380 nm, measurement wavelength; 500 nm). After the measurement for 40 seconds, 20 μL of the test compound solution from the sample plate was added to the cell plate, followed by continuous measurement for 160 seconds. Then, 20 μL of the ligand solution from the ligand plate was added to the cell plate, followed by continuous measurement for 100 seconds.
# Amount of change in intracellular Ca concentration is indicated as a peak height of the ratio of the fluorescence intensity with excitation of 340 nm and 380 nm (i.e., fluorescence intensity with excitation at 340 nm/fluorescence intensity with excitation at 380 nm) that is obtained from the difference between the maximum ratio after adding the ligand solution and the ratio before adding the ligand solution. Further, when the peak height obtained from the Ca assay buffer containing no test compound has inhibition ratio of 0% while the peak height obtained from the Ca assay buffer containing no calcium chloride as a ligand solution has inhibition ratio of 100%, inhibition ratio for each test compound (i.e., CaSR antagonist activity) was calculated.
row,Structure (SMILES),IC50 [nM]
1,"CN(C[C@H](O)CNC(C)(C)Cc1ccc2ccccc2c1)S(=O)(=O)c1ccc(-c2ccccc2C(=O)O)cc1 [Exp. 3-29, (R)-4′-(N-(2-hydroxy-3-(2-methyl-1-(naphthalen-2-yl)propan-2-ylamino)propyl)-N-methylsulfamoyl)biphenyl-2-carboxylic acid]",300 to 1000
2,"CN(C[C@H](O)CNC(C)(C)Cc1ccc2ccccc2c1)S(=O)(=O)c1ccc(-c2ccc(C(=O)O)cc2)cc1 [Exp. 3-31, (R)-4′-(N-(2-hydroxy-3-(2-methyl-1-(naphthalen-2-yl)propan-2-ylamino)propyl)-N-methylsulfamoyl)biphenyl-4-carboxylic acid]",300 to 1000
3,"Cc1ccc(-c2ccc(S(=O)(=O)N(C)C[C@H](O)CNC(C)(C)Cc3ccc4ccccc4c3)cc2)cc1C(=O)O [Exp. 3-32, (R)-4′-(N-(2-hydroxy-3-(2-methyl-1-(naphthalen-2-yl)propan-2-ylamino)propyl)-N-methylsulfamoyl)-4-methylbiphenyl-3-carboxylic acid]",1000 to 3000
4,"Cc1cc(-c2ccc(S(=O)(=O)N(C)C[C@H](O)CNC(C)(C)Cc3ccc4ccccc4c3)cc2)ccc1C(=O)O [Exp. 3-33, (R)-4′-(N-(2-hydroxy-3-(2-methyl-1-(naphthalen-2-yl)propan-2-ylamino)propyl)-N-methylsulfamoyl)-3-methylbiphenyl-4-carboxylic acid]",300 to 1000
5,"CN(C[C@H](O)CNC(C)(C)Cc1ccc2ccccc2c1)S(=O)(=O)c1ccc(-c2ccc(C(=O)O)c(N)c2)cc1 [Exp. 3-34, (R)-3-amino-4′-(N-(2-hydroxy-3-(2-methyl-1-(naphthalen-2-yl)propan-2-ylamino)propyl)-N-methylsulfamoyl)biphenyl-4-carboxylic acid]",1000 to 3000
6,"CN(C[C@H](O)CNC(C)(C)Cc1ccc2ccccc2c1)S(=O)(=O)c1ccc(-c2ccc(C(=O)O)cc2F)cc1 [Exp. 3-35, (R)-2-fluoro-4′-(N-(2-hydroxy-3-(2-methyl-1-(naphthalen-2-yl)propan-2-ylamino)propyl)-N-methylsulfamoyl)biphenyl-4-carboxylic acid]",300 to 1000
7,"CN(C[C@H](O)CNC(C)(C)Cc1ccc2ccccc2c1)S(=O)(=O)c1ccc(-c2cc3c(c(C(=O)O)c2)OCC3)cc1 [Exp. 3-36, (R)-5-(4-(N-(2-hydroxy-3-(2-methyl-1-(naphthalen-2-yl)propan-2-ylamino)propyl)-N-methylsulfamoyl)phenyl)-2,3-dihydrobenzofuran-7-carboxylic acid]",1000 to 3000
8,"CN(C[C@H](O)CNC(C)(C)Cc1ccc2ccccc2c1)S(=O)(=O)c1ccc(-c2cccc(C=CC(=O)O)c2)cc1 [Exp. 3-39, (R)-3-(4′-(N-(2-hydroxy-3-(2-methyl-1-(naphthalen 2-yl)propan-2-ylamino)propyl)-N-methylsulfamoyl)biphenyl-3-yl)acrylic acid]",300 to 1000

# Second part, the molecule after the results:
row,IC50 [nM],Structure (SMILES)
1,300 to 1000,"CN(C[C@H](O)CNC(C)(C)Cc1ccc2ccccc2c1)S(=O)(=O)c1cccc(-c2ccc(NC(=O)CCC(=O)O)cc2)c1 [Exp. 3-21, (R)-4-(3′-(N-(2-hydroxy-3-(2-methyl-1-(naphthalen-2-yl)propan-2-ylamino)propyl)-N-methylsulfamoyl)biphenyl-4-ylamino)-4-oxobutanoic acid]"
2,300 to 1000,"COCc1cc(-c2cccc(S(=O)(=O)N(C)C[C@H](O)CNC(C)(C)Cc3ccc4ccccc4c3)c2)ccc1C(=O)O [Exp. 3-22, (R)-3′-(N-(2-hydroxy-3-(2-methyl-1-(naphthalen-2-yl)propan-2-ylamino)propyl)-N-methylsulfamoyl)-3-(methoxymethyl)biphenyl-4-carboxylic acid]"
3,≤ 300,"CN(C[C@H](O)CNC(C)(C)Cc1ccc2ccccc2c1)S(=O)(=O)c1cccc(-c2cc(F)cc(C(=O)O)c2)c1 [Exp. 3-23, (R)-5-fluoro-3′-(N-(2-hydroxy-3-(2-methyl-1-(naphthalen-2-yl)propan-2-ylamino)propyl)-N-methylsulfamoyl)biphenyl-3-carboxylic acid]"
4,300 to 1000,"CN(C[C@H](O)CNC(C)(C)Cc1ccc2ccccc2c1)S(=O)(=O)c1cccc(-c2ccc(C(=O)O)c(O)c2)c1 [Exp. 3-24, (R)-3-hydroxy-3′-(N-(2-hydroxy-3-(2-methyl-1-(naphthalen-2-yl)propan-2-ylamino)propyl)-N-methylsulfamoyl)biphenyl-4-carboxylic acid]"
5,300 to 1000,"CN(C[C@H](O)CNC(C)(C)Cc1ccc2ccccc2c1)S(=O)(=O)c1cccc(-c2cc(F)c(C(=O)O)c(F)c2)c1 [Exp. 3-25, (R)-3,5-difluoro-3′-(N-(2-hydroxy-3-(2-methyl-1-(naphthalen-2-yl)propan-2-ylamino)propyl)-N-methylsulfamoyl)biphenyl-4-carboxylic acid]"
6,300 to 1000,"CN(C[C@H](O)CNC(C)(C)Cc1ccc2ccccc2c1)S(=O)(=O)c1cccc(-c2ccc(C(=O)O)s2)c1 [Exp. 3-26, (R)-5-(3-(N-(2-hydroxy-3-(2-methyl-1-(naphthalen-2-yl)propan-2-ylamino)propyl)-N-methylsulfamoyl)phenyl)thiophen-2-carboxylic acid]"
7,300 to 1000,"CN(C[C@H](O)CNC(C)(C)Cc1ccc2ccccc2c1)S(=O)(=O)c1cccc(-c2ccc(C(=O)NCCC(=O)O)cc2)c1 [Exp. 3-27, (R)-3-(3′-(N-(2-hydroxy-3-(2-methyl-1-(naphthalen-2-yl)propan-2-ylamino)propyl)-N-methylsulfamoyl)biphenyl-4-ylcarboxamide)propionic acid]"
8,300 to 1000,"CN(C[C@H](O)CNC(C)(C)Cc1ccc2ccccc2c1)S(=O)(=O)c1cccc(-c2ccc(NCC(=O)O)cc2)c1 [Exp. 3-28, (R)-2-(3′-(N-(2-hydroxy-3-(2-methyl-1-(naphthalen-2-yl)propan-2-ylamino)propyl)-N-methylsulfamoyl)biphenyl-4-ylamino)acetic acid]"
9,≤ 300,"CN(C[C@H](O)CNC(C)(C)Cc1ccc2ccccc2c1)S(=O)(=O)c1ccc(-c2cccc(C(=O)O)c2)cc1 [Exp. 3-30, (R)-4′-(N-(2-hydroxy-3-(2-methyl-1-(naphthalen-2-yl)propan-2-ylamino)propyl)-N-methylsulfamoyl)biphenyl-3-carboxylic acid]"

# Reference: patent US8039514B2, “Sulfonamide compounds and use thereof” (Asahi Kasei Pharma Corporation, priority 2008, dated 2011)
